In patent US20210220333A1, “COMPOSITIONS AND METHODS FOR PREVENTING AND/OR TREATING FILARIAL DISEASE” (priority 2018, published 2021):
Values joined by “and” are separate entries in the source; they are usually repeats but may differ in a detail not shown here. Equal values may be shown once. Read-outs that look alike come from different tables or passages of the source.

Columns and labels:
[1] = tested on: adult B. malayi female worms; assay: Adult female B. malayi incubation with UGT inhibitor in combination with albendazole, worm motility; type: cell-based, Brugia malayi; conditions: 8 days
Description: (§1) Worm motility: Worms were visualized with a dissecting microscope by an observer blinded to treatment category. Motility of the adult female B. malayi worms was rated based on the following scale: 4=active movement, 3=modest reduction in movement, 2=severe reduction in movement, 1=twitching, and 0=no movement.
For the probenecid samples, adult female worms were incubated in culture media with the drug for 8 days at concentration of 100 μM alone or in combination with 10 μM of albendazole. Worms were transferred into new media with corresponding drug concentrations every other day. As a negative control, worms were incubated in culture media alone. Worm motility was scored using a previously established scale as described in Example 3 for the course of the experiment.

B. malayi microfilariae = B. malayi microfilariae incubation with UGT inhibitors (microfilaricidal activity in vitro); type: cell-based, Brugia malayi; conditions: 500 μM
Description: B. malayi microfilariae incubation with UGT inhibitors: The above UGT inhibitors were evaluated for microfilaricidal activity in vitro. For each drug, experiments were performed in triplicate at a concentration of 2×10^4 Mf/mL in culture media. Viability was determined by quantifying the number of motile larvae from 100 randomly selected microfilariae per well. […] As a negative control, larvae were incubated in culture media alone. The UGT inhibitor experiments were repeated two times under similar conditions.

[2] = tested on: adult B. malayi female worms; assay: Adult B. malayi worm incubation with UGT inhibitors, worm motility score (macrofilaricidal activity in vitro); type: cell-based, Brugia malayi; conditions: for Lowest effective concentration (lowest concentration with significant effect on motility): adult worms in vitro
Description: For the siRNA experiments, data was analyzed using one-way analysis of variance (ANOVA) or T-test by PRISM 7.0 (GraphPad Software, La Jolla, Calif., US). Following ANOVA, individual comparisons of mean values were performed using Tukey's multiple comparisons test. For the UGT inhibitor experiments, area under curve (AUC) analysis was performed followed by one-way ANOVA to determine significance. Statistical significance between the experimental and control groups was designated as follows: * for p values<0.05, ** for p values<0.01, and *** for p values<0.001.
as §1
For probenecid, adult female worms were incubated in culture media with the drug for 7 days at concentrations of 5000 μM, 500 μM, 250 μM, and 100 μM. Worms were transferred into new media with corresponding drug concentrations every other day. As a negative control, worms were incubated in culture media alone. Worm motility was scored using the previously mentioned scale described in Example 3 for the course of the experiment.

[3] = UGT inhibitor LDH cytotoxicity assay; type: cell-based; conditions: human
Description: UGT Inhibitor Cytotoxicity Assay: Cytotoxicity of the UGT inhibitors was measured using a Pierce LDH Cytotoxicity Assay Kit (Thermo Fisher Scientific, Carlsbad, Calif., US). HEK cells were seeded at 5×10^4 per well in DMEM (Quality Biological, Gaithersburg, Md., US) with 10% Hyclone Cosmic Calf Serum (Thermo Fisher Scientific, Carlsbad, Calif., US), 200 μM of L-glutamine (Quality Biological, Gaithersburg, Md., US), and 50 μg/mL of gentamicin (Quality Biological, Gaithersburg, Md., US) at 37° C. in 5% CO2. The cells were then incubated with various concentrations of the UGT inhibitors overnight. Following this, 50 μL of media was transferred from each well to a new 96-well plate and then added 50 μL of reaction buffer. The mixture was incubated for 30 minutes and then added 50 μL of stop solution. Absorbance was measured at 490 nm and 680 nm. The following controls were included in the experiment: a spontaneous lactate dehydrogenase (LDH) activity control that was incubated with the vehicle only and a maximum LDH activity control that was incubated with nothing but later lysed prior to incubation with the reaction buffer. Absorbance was calculated for each well by subtracting the 680 nm absorbance value (background) from the 490 nm absorbance value. Percent cytotoxicity was calculated using the following equation (Formula 1): [formula]

[4] = cited from earlier work

| Structure (SMILES) | Adult worm motility, area under the curve (AUC) ([1]; 10 μM albendazole alone) | Macrofilaricidal activity compared to media alone ([1]; 10 μM alone) | Microfilaricidal effect (B. malayi microfilariae) | Macrofilaricidal activity in vitro ([2]; 500 μM) | Adult worm motility, area under the curve (AUC) ([2]; 5000 μM, 7 days, media control AUC 24.18) | Macrofilaricidal activity in vitro ([2]; adult worms) | Lowest effective concentration (lowest concentration with significant effect on motility) [2] [µM] | cytotoxicity at 100 µM [3] [%] | cytotoxicity at 250 µM [3] [%] | cytotoxicity at 500 µM [3] [%] | cytotoxicity at 5000 µM [3] [%] | Adverse events in humans ([4]; single 2 g oral dose) | Peak concentration in humans ([4]; single 2 g oral dose) | cytotoxicity at 40 µM ([3]; HEK cells, 40 μM, overnight, LDH) [%] | cytotoxicity at 100 µM ([3]; HEK cells, 100 μM, overnight, LDH, read-out: % Cytotoxicity) [%] | cytotoxicity at 200 µM ([3]; HEK cells, 200 μM, overnight, LDH) [%] | cytotoxicity at 2000 µM ([3]; HEK cells, 2000 μM, overnight, LDH) [%] | Cmax ([4]; 400 mg dose, read-out: Maximum concentration (Cmax) in humans) [µM] |
| --- | --- | --- | --- | --- | --- | --- | --- | --- | --- | --- | --- | --- | --- | --- | --- | --- | --- | --- |
| CCCSc1ccc2nc(NC(=O)OC)[nH]c2c1 [albendazole] | 29.63 | Limited macrofilaricidal activity |  |  |  |  |  |  |  |  |  |  |  |  |  |  |  |  |
| CCCN(CCC)S(=O)(=O)c1ccc(C(=O)O)cc1 [probenecid, p-(di-n-propylsulphamyl)-benzoic acid] |  |  | no clear microfilaricidal effect | robust macrofilaricidal activity | 8.1 | exhibited macrofilaricidal activity in vitro | 500 | -2.69 | -0.67 | -1.34 | -2.49 | minimal adverse events | 148.6 μg/mL and 520.7 μM |  |  |  |  |  |
| O=C1C(CC[S+]([O-])c2ccccc2)C(=O)N(c2ccccc2)N1c1ccccc1 (stereo not shown) [sulfinpyrazone] |  |  |  |  |  |  | 200 |  |  |  |  |  |  | -4.03 | -4.46 | -5.35 | -4.14 | 79.9 |
